Results published in patent publication US6723753B2, “Substituted n-benzyl-n-phenyl aminoalcohol compounds useful for inhibiting cholesteryl ester transfer protein activity” (Pharmacia Corporation, priority 2002, dated 2004).

Molecular target: T1, CETP (Homo sapiens, UniProt P11597)
T1 sequence (P11597 18-493): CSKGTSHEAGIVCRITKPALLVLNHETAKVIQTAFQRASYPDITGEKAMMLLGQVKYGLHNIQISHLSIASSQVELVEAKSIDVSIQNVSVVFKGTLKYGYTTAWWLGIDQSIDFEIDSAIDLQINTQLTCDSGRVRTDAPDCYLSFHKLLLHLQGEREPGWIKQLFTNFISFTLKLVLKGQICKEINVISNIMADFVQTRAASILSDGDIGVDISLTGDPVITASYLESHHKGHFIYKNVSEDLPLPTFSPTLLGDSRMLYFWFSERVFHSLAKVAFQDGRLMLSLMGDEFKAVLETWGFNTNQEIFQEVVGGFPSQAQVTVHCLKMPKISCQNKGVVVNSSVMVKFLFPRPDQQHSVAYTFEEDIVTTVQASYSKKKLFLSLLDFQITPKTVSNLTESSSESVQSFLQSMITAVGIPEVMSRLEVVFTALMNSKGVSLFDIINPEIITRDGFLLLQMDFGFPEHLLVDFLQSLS
Test: Assay of CETP Inhibition using Purified Components (Reconstituted Buffer Assay)
Format: biochemical
Design: made in house; host or cells: CHO cells (serum-free conditioned medium)
Details: IC50, Inhibition of CETP activity in reconstituted buffer assay; transfer of [3H]CE from HDL to LDL
Experimental: Assay of CETP Inhibition using Purified Components (Reconstituted Buffer Assay)
The ability of compounds to inhibit CETP activity was assessed using an in vitro assay that measured the rate of transfer of radiolabeled cholesteryl ester ([^3H]CE) from HDL donor particles to LDL acceptor particles. Details of the assay are provided by Glenn, K. C. et al. (Glenn and Melton, “Quantification of Cholesteryl Ester Transfer Protein (CETP): A) CETP Activity and B) Immunochemical Assay of CETP Protein,” Meth. Enzymol., 263, 339-351 (1996)). Human recombinant CETP can be obtained from the serum-free conditioned medium of CHO cells transfected with a cDNA for CETP and purified as described by Wang, S. et al. (J. Biol. Chem. 267, 17487-17490 (1992)). To measure CETP activity, [^3H]CE-labeled-HDL, LDL, CETP and assay buffer (50 mM tris(hydroxymethyl)aminomethane, pH 7.4; 150 mM sodium chloride; 2 mM ethylenediamine-tetraacetic acid (EDTA); 1% bovine serum albumin) were incubated in a final volume of 200 μL, for 2 hours at 37° C. in 96 well plates. […] The inhibitors were then diluted 1:1 with CETP in assay buffer, and then 25 μL of that solution was mixed with 175 μL of lipoprotein pool for assay. Following incubation, LDL was differentially precipitated by the addition of 50 μL of 1% (w/v) dextran sulfate/0.5 M magnesium chloride, mixed by vortex, and incubated at room temperature for 10 minutes. A potion of the solution (200 μL) was transferred to a filter plate (Millipore). After filtration, the radioactivity present in the precipitated LDL was measured by liquid scintillation counting.
This value was defined as the IC50.
Examples of IC50 values determined by these methods are specified in Table 9.

| SMILES | IC50 [µM] |
| --- | --- |
| Cc1cccc(N(Cc2cccc(C(F)(F)F)c2)CC(O)C(F)(F)F)c1 (stereo not drawn) [Example 25] | 10 |
| OC(CN(Cc1cccc(C(F)(F)F)c1)c1cccc(C(F)(F)F)c1)C(F)(F)F (stereo not drawn) [Example 47] | 10 |
| OC(CN(Cc1ccc(OC(F)(F)F)cc1)c1cccc(F)c1)C(F)(F)F (stereo not drawn) [Example 57] | 15 |
| OC(CN(Cc1cccc(Oc2ccccc2)c1)c1cccc(F)c1)C(F)(F)F (stereo not drawn) [Example 64] | 15 |
| OC(CN(Cc1ccc(-c2ccccc2)cc1)c1cccc(F)c1)C(F)(F)F (stereo not drawn) [Example 65] | 20 |

Same assay, conditions: Inhibition of CETP activity in reconstituted buffer assay; transfer of [3H]CE from HDL to LDL; read-out: IC50

| SMILES | IC50 [µM] |
| --- | --- |
| OC(CN(Cc1cccc(OC(F)(F)C(F)F)c1)c1cccc(S)c1)C(F)(F)F (stereo not drawn) [473B] | 42 |
| OC(CN(Cc1cccc(OC(F)(F)C(F)F)c1)c1cccc(CBr)c1)C(F)(F)F (stereo not drawn) [514D] | 15 |
| O=[N+]([O-])c1cccc(N(Cc2cccc(OC(F)(F)C(F)F)c2)CC(O)C(F)(F)F)c1 (stereo not drawn) [528B] | 11 |
| OC(CNc1cccc(Oc2ccccc2)c1)C(F)(F)F (stereo not drawn) [588B] | > 100 |
| CON(C)C(=O)c1cccc(CN(CC(O)C(F)(F)F)c2cccc(Oc3ccccc3)c2)c1 (stereo not drawn) [620A] | 24.6 |
| OC(CNCc1cccc(OC(F)(F)F)c1)C(F)(F)F (stereo not drawn) [632A] | > 50 |
| OC(CN(Cc1cccc(C(F)(F)F)c1)c1cccc(F)c1)C(F)(F)F (stereo not drawn) [Example 1, 3-[(3-fluorophenyl)[[3-(3-trifluoromethyl)phenyl]methyl]amino]-1,1,1-tri-fluoro-2-propanol] | 38 |
| COc1cccc(N(Cc2ccc(C)cc2)CC(O)C(F)(F)F)c1 (stereo not drawn) [Example 4] | 60 |
| Cc1ccc(N(Cc2cccc(C)c2)CC(O)C(F)(F)F)cc1 (stereo not drawn) [Example 5] | > 100 |
| COc1ccc(N(Cc2ccc(C)cc2)CC(O)C(F)(F)F)cc1 (stereo not drawn) [Example 6] | > 100 |
| OC(CN(Cc1ccccc1)c1ccc(Cl)cc1)C(F)(F)F (stereo not drawn) [Example 7] | > 100 |
| Cc1ccc(CN(CC(O)C(F)(F)F)c2ccc(C)cc2)cc1 (stereo not drawn) [Example 8] | > 100 |
| Cc1cccc(CN(CC(O)C(F)(F)F)c2cccc(Cl)c2)c1 (stereo not drawn) [Example 9] | > 100 |
| Cc1cccc(CN(CC(O)C(F)(F)F)c2cccc(C)c2)c1 (stereo not drawn) [Example 11] | > 100 |
| Cc1ccc(CN(CC(O)C(F)(F)F)c2cccc(C)c2)cc1 (stereo not drawn) [Example 12] | > 100 |
| Cc1ccc(CN(CC(O)C(F)(F)F)c2ccccc2C)cc1 (stereo not drawn) [Example 13] | > 100 |
| Cc1ccc(N(Cc2ccccc2)CC(O)C(F)(F)F)cc1 (stereo not drawn) [Example 14] | 60 |
| Cc1ccccc1N(Cc1ccccc1)CC(O)C(F)(F)F (stereo not drawn) [Example 15] | > 100 |
| OC(CN(Cc1ccccc1)c1cccc(Cl)c1)C(F)(F)F (stereo not drawn) [Example 16] | 60 |
| Cc1cccc(CN(CC(O)C(F)(F)F)c2ccc(F)c(F)c2)c1 (stereo not drawn) [Example 17] | 45 |
| OC(CN(Cc1cccc(C(F)(F)F)c1)c1ccc(F)c(F)c1)C(F)(F)F (stereo not drawn) [Example 19] | 15 |
| COc1ccc(N(Cc2ccc(C(F)(F)F)cc2)CC(O)C(F)(F)F)cc1 (stereo not drawn) [Example 23] | 15 |

| SMILES | IC50 [µM] |
| --- | --- |
| Cc1ccc(CN(CC(O)C(F)(F)F)c2ccc(F)c(F)c2)cc1 (stereo not drawn) [Example 24] | > 100 |
| COc1cccc(N(Cc2ccc(C(F)(F)F)cc2)CC(O)C(F)(F)F)c1 (stereo not drawn) [Example 26] | 8 |
| Cc1cccc(CN(CC(O)C(F)(F)F)c2ccccc2C)c1 (stereo not drawn) [Example 27] | > 100 |
| COc1ccc(N(Cc2cccc(C)c2)CC(O)C(F)(F)F)cc1 (stereo not drawn) [Example 28] | 75 |
| Cc1ccc(CN(CC(O)C(F)(F)F)c2cc(F)cc(F)c2)cc1 (stereo not drawn) [Example 29] | > 100 |
| OC(CN(Cc1cccc(C(F)(F)F)c1)c1cccc(Br)c1)C(F)(F)F (stereo not drawn) [Example 30] | 22 |
| Cc1ccc(N(Cc2ccc(C(F)(F)F)cc2)CC(O)C(F)(F)F)cc1 (stereo not drawn) [Example 37] | > 100 |
| OC(CN(Cc1cccc(C(F)(F)F)c1)c1cccc(Cl)c1)C(F)(F)F (stereo not drawn) [Example 38] | 13 |
| Cc1cccc(N(Cc2ccc(C(F)(F)F)cc2)CC(O)C(F)(F)F)c1 (stereo not drawn) [Example 39] | 15 |
| Cc1ccccc1N(Cc1ccc(C(F)(F)F)cc1)CC(O)C(F)(F)F (stereo not drawn) [Example 40] | > 100 |
| OC(CN(Cc1cccc(OC(F)(F)F)c1)c1cccc(Cl)c1)C(F)(F)F (stereo not drawn) [Example 41] | 12 |
| OC(CN(Cc1cccc(OC(F)(F)C(F)F)c1)c1cccc(I)c1)C(F)(F)F (stereo not drawn) [Example 44] | 2.7 |
| OC(CN(Cc1cccc(F)c1)c1cccc(C(F)(F)F)c1)C(F)(F)F (stereo not drawn) [Example 46] | > 100 |
| COc1cccc(N(Cc2cccc(C(F)(F)F)c2)CC(O)C(F)(F)F)c1 (stereo not drawn) [Example 48] | > 100 |
| OC(CN(Cc1ccc(C(F)(F)F)cc1)c1cccc(Cl)c1)C(F)(F)F (stereo not drawn) [Example 50] | 15 |
| COc1ccc(N(Cc2cccc(C(F)(F)F)c2)CC(O)C(F)(F)F)cc1 (stereo not drawn) [Example 51] | 20 |
| OC(CN(Cc1cccc(C(F)(F)F)c1)c1ccc(F)c(C(F)(F)F)c1)C(F)(F)F (stereo not drawn) [Example 52] | 7 |
| Cc1ccc(CN(CC(O)C(F)(F)F)c2ccc(F)c(C(F)(F)F)c2)cc1 (stereo not drawn) [Example 53] | 15 |
| OC(CN(Cc1ccc(OC(F)(F)F)cc1)c1cccc(C(F)(F)F)c1)C(F)(F)F (stereo not drawn) [Example 54] | 15 |
| OC(CN(Cc1ccc(OC(F)(F)F)cc1)c1cccc(Cl)c1)C(F)(F)F (stereo not drawn) [Example 55] | 20 |
| OC(CN(Cc1ccc(OC(F)(F)F)cc1)c1ccc(F)c(F)c1)C(F)(F)F (stereo not drawn) [Example 56] | 20 |
| Cc1cccc(CN(CC(O)C(F)(F)F)c2ccc(F)c(C(F)(F)F)c2)c1 (stereo not drawn) [Example 58] | 15 |

| SMILES | IC50 [µM] |
| --- | --- |
| OC(CN(Cc1ccc(OC(F)(F)F)cc1)c1ccccc1)C(F)(F)F (stereo not drawn) [Example 59] | 7 |
| Cc1cccc(N(Cc2ccc(OC(F)(F)F)cc2)CC(O)C(F)(F)F)c1 (stereo not drawn) [Example 61] | 23 |
| OC(CN(Cc1ccc(OC(F)(F)F)cc1)c1cccc(Br)c1)C(F)(F)F (stereo not drawn) [Example 62] | 18 |
| Cc1cccc(CN(CC(O)C(F)(F)F)c2ccc(Cl)c(C(F)(F)F)c2)c1 (stereo not drawn) [Example 67] | 15 |
| OC(CN(Cc1ccc(OC(F)(F)F)cc1)c1cc(F)cc(F)c1)C(F)(F)F (stereo not drawn) [Example 68] | 15 |
| OC(CN(Cc1cccc(C(F)(F)F)c1)c1cccc(F)c1F)C(F)(F)F (stereo not drawn) [Example 69] | 20 |
| Cc1cccc(N(Cc2cccc(OC(F)(F)F)c2)CC(O)C(F)(F)F)c1 (stereo not drawn) [Example 72] | 10 |
| OC(CN(Cc1cccc(OC(F)(F)F)c1)c1ccccc1)C(F)(F)F (stereo not drawn) [Example 73] | 3 |
| OC(CN(Cc1cccc(OC(F)(F)F)c1)c1ccc(F)c(F)c1)C(F)(F)F (stereo not drawn) [Example 78] | 10 |
| OC(CN(Cc1ccc(OC(F)(F)F)cc1)c1cccc(F)c1F)C(F)(F)F (stereo not drawn) [Example 80] | 20 |
| Cc1cccc(CN(CC(O)C(F)(F)F)c2cc(F)cc(F)c2)c1 (stereo not drawn) [Example 81] | > 100 |
| OC(CN(Cc1cccc(Oc2ccccc2)c1)c1cccc(OC(F)(F)F)c1)C(F)(F)F (stereo not drawn) [Example 82] | 8 |
| OC(CN(Cc1cccc(OCc2ccccc2)c1)c1cccc(OC(F)(F)F)c1)C(F)(F)F (stereo not drawn) [Example 83] | 20 |
| OC(CN(Cc1cccc(Oc2ccccc2)c1)c1ccccc1-c1ccccc1)C(F)(F)F (stereo not drawn) [Example 85] | 80 |
| OC(CN(Cc1cccc(Oc2ccccc2)c1)c1ccc(-c2ccccc2)cc1)C(F)(F)F (stereo not drawn) [Example 86] | 20 |
| CCCCCCCCc1ccc(N(Cc2cccc(OC(F)(F)F)c2)CC(O)C(F)(F)F)cc1 (stereo not drawn) [Example 88] | 75 |
| OC(CN(Cc1cccc(Oc2ccc(Cl)cc2)c1)c1cccc(Oc2ccccc2)c1)C(F)(F)F (stereo not drawn) [Example 92] | 12 |
| OC(CN(Cc1cccc(Oc2ccc(Cl)c(Cl)c2)c1)c1cccc(Oc2ccccc2)c1)C(F)(F)F (stereo not drawn) [Example 94] | 40 |
| OC(CN(Cc1cccc(Oc2ccc(Cl)c(Cl)c2)c1)c1cccc(OC(F)(F)F)c1)C(F)(F)F (stereo not drawn) [Example 95] | 60 |
| COc1ccc(CN(CC(O)C(F)(F)F)c2cccc(OC(F)(F)F)c2)cc1OCc1ccccc1 (stereo not drawn) [Example 99] | > 100 |
